Each structure is given as a SMILES string. In brackets after ≈: the same amount, converted by molar mass. Where only a bound is given, the exact number is not on record here.

Experimental findings from patent US11793803B2, “Particle and pharmaceutical composition comprising an insoluble camptothecin compound with double core-shell structure and method for manufacturing the same” (SN BIOSCIENCE INC., priority 2017, dated 2023) are described below.

The data set can be described thus: Solubility in different solvents (supersaturated solution, filtrate analysed by HPLC). The note with it: for solubility at 30 min: thermodynamic from solid.

Protocol: A supersaturated solution was prepared by adding 20 mg of the hydrophobic camptothecin compound (camptothecin or SN-38) to 5 ml of ethanol, acetonitrile, acetone, ethyl acetate, chloroform dimethyl sulfoxide, or distilled water, followed by ultrasonic treatment for 30 minutes. The prepared supersaturated solution was filtered through a 0.45-μm filter, and a filtrate was properly diluted, followed by HPLC analysis.
The prepared supersaturated solution was filtered through a 0.45-μm filter, and a filtrate was properly diluted, followed by HPLC analysis.
HPLC (Agilent 1200 Series, USA) conditions were as follows. The column was CapcellPak C8 (5 m, 4.6 mm×25 cm, Shiseido); the mobile phase was a mixed solvent of methanol:acetonitrile:buffer (2.8 g/L sodium dihydrogenphosphate, 1.8 g/L 1-octanesulfonate aqueous solution)=17:24:59 (v/v); the flow rate was 1.5 mL/min; the measurement wavelength was UV 255 nm; and the sample injection amount was 15 μL.

For the compound `CC[C@@]1(O)C(=O)OCc2c1cc1n(c2=O)Cc2cc3ccccc3nc2-1` [Camptothecin, camptothecin], the solubility at 30 min is, setting by setting: (acetonitrile, organic solvent or mixture) 101 µg/mL (≈ 290 µM); (chloroform, organic solvent or mixture) 2 µg/mL (≈ 5.74 µM); (dimethyl sulfoxide, organic solvent or mixture) 3290 µg/mL (≈ 9450 µM); (distilled water, water) 9 µg/mL (≈ 25.8 µM); (ethanol, organic solvent or mixture) 149 µg/mL (≈ 428 µM); (ethyl acetate, organic solvent or mixture) 134 µg/mL (≈ 385 µM).

With `CCc1c2c(nc3ccc(O)cc13)-c1cc3c(c(=O)n1C2)COC(=O)[C@]3(O)CC` [SN-38, 7-ethyl-10-hydroxy-camptothecin], the “Solubility of hydrophobic camptothecin-based compound” value is 402 µg/mL (Acetonitrile); 9 µg/mL (Chloroform); 2263 µg/mL (Dimethyl sulfoxide); below 1 µg/mL (Distilled water); 779 µg/mL (Ethanol); 78 µg/mL (Ethyl acetate).
